Measurements taken from ChEMBL document CHEMBL5375955, “Discovery of New Fusobacterium nucleatum Inhibitors to Attenuate Migratory Capability of Colon Cancer Cells by the Drug Repositioning Strategy” (J Med Chem, 2023).
≈ marks a conversion by molar mass, not a printed value. Calls of active or inactive are those of the source. The rule behind the calls is not given here.

Columns and labels:
Fusobacterium nucleatum [1] = experiment: Antibacterial activity against Fusobacterium nucleatum ATCC 23726 assessed as bacterial growth inhibition incubated for 48 hrs by broth dilution susceptibility test; format: functional
Fusobacterium nucleatum [2] = experiment: Antibacterial activity against Fusobacterium nucleatum ATCC 23726 assessed as bacterial growth inhibition incubated for 72 hrs by turbidimeter analysis; format: functional, organism-based
[3] = test system: Peptostreptococcus anaerobius; experiment: Antibacterial activity against Peptostreptococcus anaerobius ATCC 27337 assessed as bacterial growth inhibition incubated for 48 hrs by broth dilution susceptibility test; format: functional
HCT-116 = experiment: Antiproliferative activity against human HCT-116 cells assessed as inhibition of cell growth incubated for 48 hrs by CCK-8 assay; format: functional, cell-based; details: HCT-116, 48 h
Enterococcus faecalis = experiment: Antibacterial activity against Enterococcus faecalis ATCC 29212 assessed as bacterial growth inhibition incubated for 48 hrs by broth dilution susceptibility test; format: functional
Staphylococcus aureus = experiment: Antibacterial activity against Staphylococcus aureus ATCC 6538 assessed as bacterial growth inhibition incubated for 48 hrs by broth dilution susceptibility test; format: functional
MC-38 = experiment: Antiproliferative activity against mouse MC-38 cells assessed as inhibition of cell growth incubated for 48 hrs by CCK-8 assay; format: functional, cell-based; details: MC-38, 48 h
Escherichia coli = experiment: Antibacterial activity against Escherichia coli […] assessed as bacterial growth inhibition incubated for 48 hrs by broth dilution susceptibility test; format: functional
[4] = Cytotoxicity against human L02 cells assessed as inhibition of cell growth incubated for 48 hrs by CCK-8 assay; format: toxicity, cell-based
[5] = test system: Salmonella enterica subsp. enterica serovar Paratyphi B; experiment: Antibacterial activity against Salmonella paratyphi B ATCC CMCC50094 assessed as bacterial growth inhibition incubated for 48 hrs by broth dilution susceptibility test; format: functional
Fusobacterium nucleatum [6] = experiment: Antibiofilm activity against Fusobacterium nucleatum ATCC 23726 assessed as inhibition of biofilm formation incubated for 48 hrs by crystal violet staining based assay; format: functional, organism-based; details: dose 0.5-16 µg/ml
Shigella flexneri = experiment: Antibacterial activity against Shigella flexneri ATCC 12022 assessed as bacterial growth inhibition incubated for 48 hrs by broth dilution susceptibility test; format: functional
[7] = Cytotoxicity against HUVEC cells assessed as inhibition of cell growth incubated for 48 hrs by CCK-8 assay; format: toxicity, cell-based; details: human
[8] = test system: Lactobacillus acidophilus; experiment: Antibacterial activity against Lactobacillus acidophilus ATCC CGMCC 1.577 assessed as bacterial growth inhibition incubated for 48 hrs by broth dilution susceptibility test; format: functional
Fusobacterium nucleatum [9] = experiment: Antibacterial activity against Fusobacterium nucleatum ATCC 23726 assessed as bacterial growth inhibition at 4 ug/ml incubated for 72 hrs by turbidimeter analysis; format: functional, organism-based; details: dose 4.0 µg/ml
Akkermansia muciniphila = experiment: Antibacterial activity against Akkermansia muciniphila ATCC BAA-835 assessed as bacterial growth inhibition incubated for 48 hrs by broth dilution susceptibility test; format: functional
Fusobacterium nucleatum [10] = experiment: Antibacterial activity against Fusobacterium nucleatum ATCC 23726 assessed as bacterial growth inhibition at 8 ug/ml incubated for 72 hrs by turbidimeter analysis; format: functional, organism-based; details: dose 8.0 µg/ml
Fusobacterium nucleatum [11] = experiment: Antibacterial activity against Fusobacterium nucleatum ATCC 23726 assessed as bacterial growth inhibition at 8 ug/ml incubated for 72 hrs by turbidimeter analysis relative to control; format: functional; parameters: scale not given: the % may be the effect or the level left; details: dose 8 µg/ml
Fusobacterium nucleatum [12] = experiment: Antibiofilm activity against Fusobacterium nucleatum ATCC 23726 assessed as downregulation of tnaA gene expression measured after 48 hrs by RT-qPCR analysis; format: functional, organism-based
[13] = Acute toxicity in po dosed ICR mouse assessed as spleen damage at 1500 mg/kg, po measured after 7 days by H and E staining based analysis; format: organism-based; details: in vivo, 168 h, time 7 day
[14] = Acute toxicity in po dosed ICR mouse assessed as heart damage at 1500 mg/kg, po measured after 7 days by H and E staining based analysis; format: organism-based; details: in vivo, 168 h, time 7 day
[15] = Drug metabolism assessed as NTR(unknown origin)-mediated metabolism at 10 mM incubated for 2 hrs in presence of NADH by LC-MS analysis; format: ADME; details: bacteria, 10000 µM
[16] = Acute toxicity in po dosed ICR mouse assessed as kidney damage at 1500 mg/kg, po measured after 7 days by H and E staining based analysis; format: organism-based; details: in vivo, 168 h, time 7 day
[17] = Acute toxicity in po dosed ICR mouse assessed as liver damage at 1500 mg/kg, po measured after 7 days by H and E staining based analysis; format: organism-based; details: in vivo, 168 h, time 7 day
[18] = Acute toxicity in po dosed ICR mouse assessed as animal death measured after 7 days; format: organism-based; details: in vivo, time 7 day
[19] = Acute toxicity in po dosed ICR mouse assessed as lung damage at 1500 mg/kg, po measured after 7 days by H and E staining based analysis; format: organism-based; details: in vivo, 168 h, time 7 day
Fusobacterium nucleatum [20] = experiment: Antibiofilm activity against Fusobacterium nucleatum ATCC 23726 assessed as inhibition of biofilm formation at 1 ug/ml incubated for 48 hrs by crystal violet staining based assay relative to control; format: functional
[21] = Metabolic stability in mouse liver microsomes assessed as half life at 1 uM incubated for 45 mins in presence of NADPH by LC-MS/MS analysis; format: ADME, Microsome
[22] = Acute toxicity in ICR mouse assessed as death rate at 1250 to 2592 mg/kg, po measured after 7 days; format: organism-based; details: in vivo, dose 1250-2592 mg/kg, time 7 day, read-out: Activity
Fusobacterium nucleatum [23] = experiment: Antibacterial activity against Fusobacterium nucleatum ATCC 23726 assessed as downregulation of NTR gene expression incubated for 48 hrs by RT-qPCR analysis; format: functional, organism-based
L02 = experiment: Downregulation of HPPD gene expression in human L02 cells at 10 to 50 uM incubated for 48 hrs by RT-qPCR analysis; format: functional, cell-based; details: dose 10-50 µM

Compound: O=C(Cn1cnc(=O)c2ccc(Cl)cc21)Nc1ccc([N+](=O)[O-])cc1Cl
- MIC50 (Fusobacterium nucleatum [1]): 64 µg/mL (≈ 163 µM)

Compound: CN(N=O)C(=O)N[C@@H](C=O)[C@@H](O)[C@H](O)[C@H](O)CO [STREPTOZOCIN]
- MIC50 (Fusobacterium nucleatum [1]): 0.125 µg/mL (≈ 0.471 µM)

Compound: O=[N+]([O-])c1ccc(COc2ccc([N+](=O)[O-])c(C(F)(F)F)c2)o1
- Activity (Fusobacterium nucleatum [2]): Dose-Dependent Effect
- MIC50 [3]: 32 µg/mL (≈ 96.3 µM)
- IC50 (HCT-116): 52 µM
- MIC50 (Enterococcus faecalis): 64 µg/mL (≈ 193 µM)
- MIC50 (Fusobacterium nucleatum [1]): 4 µg/mL (≈ 12 µM)
- MIC50 (Staphylococcus aureus): 64 µg/mL (≈ 193 µM)
- IC50 (MC-38): 38 µM
- MIC50 (Escherichia coli): 64 µg/mL (≈ 193 µM)
- IC50 at 48 h [4]: 21 µM
- MIC50 [5]: 64 µg/mL (≈ 193 µM)
- inhibition (Fusobacterium nucleatum [6]): Dose-Dependent Effect
- MIC50 (Shigella flexneri): > 64 µg/mL
- IC50 at 48 h [7]: 9.6 µM
- MIC50 [8]: > 64 µg/mL
- Activity (Fusobacterium nucleatum [9]): Active
- MIC50 (Akkermansia muciniphila): > 64 µg/mL

Compound: CC1CS(=O)(=O)CCN1/N=C/c1ccc([N+](=O)[O-])o1 (stereo not given) [NIFURTIMOX]
- MIC50 (Fusobacterium nucleatum [1]): 16 µg/mL (≈ 55.7 µM)

Compound: O=C(OCc1ccc([N+](=O)[O-])o1)c1ccc(C(F)(F)F)cc1[N+](=O)[O-]
- Activity (Fusobacterium nucleatum [2]): Dose-Dependent Effect
- MIC50 [3]: > 64 µg/mL
- IC50 (HCT-116): 84 µM
- MIC50 (Enterococcus faecalis): > 64 µg/mL
- MIC50 (Fusobacterium nucleatum [1]): 4 µg/mL (≈ 11.1 µM)
- MIC50 (Staphylococcus aureus): > 64 µg/mL
- IC50 (MC-38): 49 µM
- MIC50 (Escherichia coli): > 64 µg/mL
- IC50 at 48 h [4]: 81 µM
- MIC50 [5]: 64 µg/mL (≈ 178 µM)
- MIC50 (Shigella flexneri): > 64 µg/mL
- Activity (Fusobacterium nucleatum [10]): Active
- IC50 at 48 h [7]: 40 µM
- MIC50 [8]: 64 µg/mL (≈ 178 µM)
- MIC50 (Akkermansia muciniphila): > 64 µg/mL

Compound: CS(=O)(=O)c1ccc(C(=O)C2C(=O)CCCC2=O)c(Cl)c1 [SULCOTRIONE]
- MIC50 (Fusobacterium nucleatum [1]): > 64 µg/mL

Compound: O=C(NCc1ccncc1)c1ccc(C(F)(F)F)cc1[N+](=O)[O-]
- MIC50 (Fusobacterium nucleatum [1]): 64 µg/mL (≈ 197 µM)

Compound: Cc1ncc([N+](=O)[O-])n1C [DIMETRIDAZOLE]
- MIC50 (Fusobacterium nucleatum [1]): 1 µg/mL (≈ 7.09 µM)

Compound: O=[N+]([O-])c1ccc(COc2ccc(C(F)(F)F)cc2[N+](=O)[O-])o1
- MIC50 (Fusobacterium nucleatum [1]): 4 µg/mL (≈ 12 µM)

Compound: CSc1ccc(OCc2ncc([N+](=O)[O-])n2C)cc1 [FEXINIDAZOLE]
- MIC50 (Fusobacterium nucleatum [1]): 8 µg/mL (≈ 28.6 µM)

Compound: Cc1ccc(OC(=O)c2ccc(C(F)(F)F)cc2[N+](=O)[O-])c(C(N)=O)c1
- MIC50 (Fusobacterium nucleatum [1]): 64 µg/mL (≈ 174 µM)

Compound: CC(C)(C)c1ccc(C(O)CCCN2CCC(C(O)(c3ccccc3)c3ccccc3)CC2)cc1 (stereo not given) [TERFENADINE]
- MIC50 (Fusobacterium nucleatum [1]): 16 µg/mL (≈ 33.9 µM)

Compound: Cn1c([N+](=O)[O-])cnc1COC(N)=O [RONIDAZOLE]
- MIC50 (Fusobacterium nucleatum [1]): 2 µg/mL (≈ 9.99 µM)

Compound: O=C1NCCN1CCN1CCC(c2cn(-c3ccc(F)cc3)c3ccc(Cl)cc23)CC1 [SERTINDOLE]
- MIC50 (Fusobacterium nucleatum [1]): 16 µg/mL (≈ 36.3 µM)

Compound: O=[N+]([O-])c1ccc(COc2ccc([N+](=O)[O-])c(Br)c2)o1
- Activity (Fusobacterium nucleatum [2]): Dose-Dependent Effect
- MIC50 [3]: 32 µg/mL (≈ 93.3 µM)
- Activity (Fusobacterium nucleatum [11]): ~100%
- IC50 (HCT-116): 62 µM
- Activity (Fusobacterium nucleatum [12]): Dose-Dependent Effect
- Activity [13]: Non-Toxic
- Activity [14]: Non-Toxic
- MIC50 (Enterococcus faecalis): 64 µg/mL (≈ 187 µM)
- Drug metabolism [15]: Metabolite_Detected
- Activity [16]: Non-Toxic
- MIC50 (Fusobacterium nucleatum [1]): 2 µg/mL (≈ 5.83 µM)
- MIC90 (Fusobacterium nucleatum [1]): 2 µg/mL (≈ 5.83 µM)
- Activity [17]: Non-Toxic
- MIC50 (Staphylococcus aureus): 64 µg/mL (≈ 187 µM)
- IC50 (MC-38): 26 µM
- MIC50 (Escherichia coli): 16 µg/mL (≈ 46.6 µM)
- IC50 at 48 h [4]: 60 µM
- LD50 at 168 h [18]: > 2590 mg/kg
- Activity [19]: Non-Toxic
- inhibition at 1 µg/mL (Fusobacterium nucleatum [20]): > 50%
- MIC50 [5]: > 64 µg/mL
- inhibition (Fusobacterium nucleatum [6]): Dose-Dependent Effect
- half-life at 1 µM [21]: 21.3 min
- MIC50 (Shigella flexneri): > 64 µg/mL
- mortality at 168 h [22]: 0%
- IC50 at 48 h [7]: 16 µM
- MIC50 [8]: 64 µg/mL (≈ 187 µM)
- Activity (Fusobacterium nucleatum [23]): Dose-Dependent Effect
- Activity (Fusobacterium nucleatum [9]): Active
- Activity (L02): Active
- MIC50 (Akkermansia muciniphila): > 64 µg/mL

Compound: Cc1cc(NC(=O)c2ccc(C(F)(F)F)cc2[N+](=O)[O-])on1
- MIC50 (Fusobacterium nucleatum [1]): > 64 µg/mL
